Source: article PMC9897792, “Discovery of novel 2-(4-(benzyloxy)-5-(hydroxyl) phenyl) benzothiazole derivatives as multifunctional MAO-B inhibitors for the treatment of Parkinson’s disease” (Journal of Enzyme Inhibition and Medicinal Chemistry, 2023)
“And” between values parts separate entries of the source, which are not always exact repeats. Equal entries are not always repeated. Where two headings read alike, the source gives them in different places.

Assays:
MAO-B [1] = target: T1, MAO-B (Homo sapiens, UniProt P27338); test: MAO-B inhibition, kynuramine method; type: biochemical
T1 sequence (P27338 1-520): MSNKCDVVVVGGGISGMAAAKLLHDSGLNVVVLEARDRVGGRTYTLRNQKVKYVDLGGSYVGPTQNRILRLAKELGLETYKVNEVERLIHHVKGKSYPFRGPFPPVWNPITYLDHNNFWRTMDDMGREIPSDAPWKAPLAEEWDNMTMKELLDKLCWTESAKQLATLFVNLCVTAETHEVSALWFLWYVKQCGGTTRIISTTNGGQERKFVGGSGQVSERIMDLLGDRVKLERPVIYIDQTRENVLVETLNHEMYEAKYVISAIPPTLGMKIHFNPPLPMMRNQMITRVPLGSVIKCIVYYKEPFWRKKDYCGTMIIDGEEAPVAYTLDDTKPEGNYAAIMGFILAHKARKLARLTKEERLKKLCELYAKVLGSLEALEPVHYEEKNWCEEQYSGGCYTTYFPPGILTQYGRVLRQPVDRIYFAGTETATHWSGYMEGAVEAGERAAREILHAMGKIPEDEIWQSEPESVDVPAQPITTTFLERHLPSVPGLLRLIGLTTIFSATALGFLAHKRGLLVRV

[2] = Oxygen radical absorbance capacity assay with fluorescein (ORAC-FL); conditions: Trolox as standard
Procedure: Oxygen radical absorbance capacity assay which used fluorescein (ORAC-FL) was performed to measure the antioxidant activities of 2-(4-(benzyloxy)-5-(hydroxyl) phenyl) benzothiazole derivatives. […] It reflected that introduction of alkyl substituents on benzyloxy ring was more beneficial for the improvement of in vitro antioxidant activity. However, the position and number of substituents seem to have little influence on the antioxidative activities.
Test compounds solution (20 µL, 10 µM) and fluorescein solution (120 µL, 250 nM) were added to a black 96-wells plate in order. The mixture was incubated for 15 min at 37 °C. Then, AAPH solution (60 µL, 40 mM) was added through an automatic sampler. The fluorescence was recorded with excitation and emission wavelengths at 485 and 535 nm on the multifunctional enzyme marker (Thermo Scientific), and the area under the curve (AUC) was calculated automatically. Trolox was used as a reference, and the antioxidant activities of the compounds were expressed as Trolox equivalent. The test compound solution was replaced with PBS (20 µL) in blank well. The antioxidant activities of the test compounds were calculated by the formula: [(AUCsample − AUCblank)/(AUCtrolox − AUCblank)] × [(Trolox concentration/test sample concentration)].

MAO-A = target: T2, MAO-A (Homo sapiens, UniProt P21397); test: MAO-A inhibition, kynuramine method; type: biochemical; conditions: for inhibition at 10 µM: read-out: %Inhibition MAO-A
T2 sequence (P21397 1-527): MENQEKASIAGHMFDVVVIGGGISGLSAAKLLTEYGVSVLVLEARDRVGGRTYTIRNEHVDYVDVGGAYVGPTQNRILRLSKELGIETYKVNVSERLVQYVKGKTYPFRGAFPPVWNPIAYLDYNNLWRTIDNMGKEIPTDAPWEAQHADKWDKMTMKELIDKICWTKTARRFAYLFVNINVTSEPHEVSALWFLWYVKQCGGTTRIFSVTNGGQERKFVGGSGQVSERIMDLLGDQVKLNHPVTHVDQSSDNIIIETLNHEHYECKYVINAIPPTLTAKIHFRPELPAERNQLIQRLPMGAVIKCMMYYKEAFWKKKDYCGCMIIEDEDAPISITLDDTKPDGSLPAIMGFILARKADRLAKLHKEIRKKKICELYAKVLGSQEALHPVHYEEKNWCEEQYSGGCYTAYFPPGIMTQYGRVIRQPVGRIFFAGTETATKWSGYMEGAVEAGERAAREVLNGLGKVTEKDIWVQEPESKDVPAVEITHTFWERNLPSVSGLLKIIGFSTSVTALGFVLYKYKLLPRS

MAO-B [3] = target: T1, MAO-B; test: Reversibility study of MAO-B inhibition by dialysis method; type: biochemical; conditions: for MAO-B inhibitory mode: classified by MAO-B catalytic activity in dialysis group; for MAO-B catalytic activity, undialysis group / MAO-B catalytic activity, dialysis group: test compound 4 × IC50; for MAO-B catalytic activity, undialysis group: 4 °C for 24 h without dialysis; for MAO-B catalytic activity, dialysis group: dialysis 24 h
Procedure: The mixture was incubated at 37 °C for 30 min and transferred to dialysis bag (MWCO: 10 000, flattening width: 24 mm, length: 8–10 cm). Then, this dialysis bag was placed in 200 ml PBS for 24 h, and the outer PBS was replaced with fresh at 3 and 7 h, respectively. As for the undialysis group, the mixture was placed at 4 °C for 24 h. After dialysis, the mixtures (40 µL) in the dialysis bag were taken out to measure the catalytic activity, and the test method was similar with the inhibition experiment of MAOs. […] The test compound solution was replaced with PBS buffer at the same volume in the blank group.

[4] = PAMPA-BBB literature values ref 1 (Di et al., Eur. J. Med. Chem. 2003, 38, 223); cited from earlier work
[5] = at the concentration of 10.0 μM, n.a. = no active, percent inhibition <5.0%

SMILES	IC50 (MAO-B [1])	ORAC [2]	inhibition at 10 µM (MAO-A; [5])	other results
COc1cccc(COc2ccc(-c3nc4ccccc4s3)c(O)c2)c1 [3g, 2-(Benzo[d]thiazol-2-yl)-5-((3-methoxybenzyl)oxy)phenol]	1520 ± 97 nM	2.30 ± 0.04 Trolox equivalents	–	–
Oc1cc(OCc2ccc(F)c(Cl)c2)ccc1-c1nc2ccccc2s1 [3o, 2-(Benzo[d]thiazol-2-yl)-5-((3-chloro-4-fluorobenzyl)oxy)phenol]	521 ± 7 nM	2.27 ± 0.05 Trolox equivalents	49.9 ± 0.53%	–
Oc1cc(OCc2ccc(Cl)c(Cl)c2)ccc1-c1nc2ccccc2s1 [3n, 2-(Benzo[d]thiazol-2-yl)-5-((3,4-dichlorobenzyl)oxy)phenol]	970 ± 11 nM	2.21 ± 0.09 Trolox equivalents	–	IC50 (MAO-A): 9800 ± 190 nM
Oc1cc(OCc2cccc(F)c2)ccc1-c1nc2ccccc2s1 [3d, 2-(Benzo[d]thiazol-2-yl)-5-((3-fluorobenzyl)oxy)phenol]	526 ± 24 nM	2.24 ± 0.10 Trolox equivalents	18.41 ± 0.05%	–
C#CCN[C@@H]1CCc2ccccc21 [Rasagiline]	–	–	–	MAO-B inhibitory mode (MAO-B [3]): irreversible (irreversible inhibition: MAO-B catalytic activity ≤ 20%); MAO-B catalytic activity, undialysis group (MAO-B [3]): 2.7%; MAO-B catalytic activity, dialysis group (MAO-B [3]): 4.2%
Oc1cc(OCc2ccccc2)ccc1-c1nc2ccccc2s1 [3a, 2-(Benzo[d]thiazol-2-yl)-5-(benzyloxy)phenol]	3930 ± 259 nM	2.13 ± 0.05 Trolox equivalents	24.83 ± 0.11%	–
Oc1cc(OCc2ccc(Cl)cc2)ccc1-c1nc2ccccc2s1 [3i, 2-(Benzo[d]thiazol-2-yl)-5-((4-chlorobenzyl)oxy)phenol]	314 ± 10 nM	2.23 ± 0.06 Trolox equivalents	47.14 ± 0.21%	–
CC(C)(C)c1ccc(COc2ccc(-c3nc4ccccc4s3)c(O)c2)cc1 [3k, 2-(Benzo[d]thiazol-2-yl)-5-((4-(tert-butyl)benzyl)oxy)phenol]	3407 ± 32 nM	2.48 Trolox equivalents and 2.48 ± 0.13 Trolox equivalents	–	–
Oc1cc(OCc2ccccc2Cl)ccc1-c1nc2ccccc2s1 [3c, 2-(Benzo[d]thiazol-2-yl)-5-((2-chlorobenzyl)oxy)phenol]	2900 ± 31 nM	2.26 ± 0.09 Trolox equivalents	19.58 ± 0.06%	–
O=[N+]([O-])c1ccc(COc2ccc(-c3nc4ccccc4s3)c(O)c2)cc1 [3l, 2-(Benzo[d]thiazol-2-yl)-5-((4-nitrobenzyl)oxy)phenol]	784 ± 28 nM	2.14 ± 0.06 Trolox equivalents	25.16 ± 0.13%	–
Cn1c(=O)c2[nH]cnc2n(C)c1=O [Theophylline]	–	–	–	Pe (Bibl) [4]: 0.12 ×10⁻⁶ cm/s
Oc1cc(OCc2ccc(F)c(F)c2)ccc1-c1nc2ccccc2s1 [3m, 2-(Benzo[d]thiazol-2-yl)-5-((3,4-difluorobenzyl)oxy)phenol]	423 ± 9 nM	2.24 ± 0.11 Trolox equivalents	47.52 ± 0.36%	–
CN1C(C(=O)Nc2ccccn2)=C(O)c2ccccc2S1(=O)=O [Piroxicam]	–	–	–	Pe (Bibl) [4]: 2.5 ×10⁻⁶ cm/s
O=C1Nc2ccc(Cl)cc2C(c2ccccc2)=NC1O (centres unmarked) [Oxazepam]	–	–	–	Pe (Bibl) [4]: 10 ×10⁻⁶ cm/s
Oc1cc(OCc2ccccc2F)ccc1-c1nc2ccccc2s1 [3b, 2-(Benzo[d]thiazol-2-yl)-5-((2-fluorobenzyl)oxy)phenol]	1670 ± 146 nM	2.32 ± 0.02 Trolox equivalents	14.25 ± 0.07%	–
Cc1ccc(COc2ccc(-c3nc4ccccc4s3)c(O)c2)cc1 [3j, 2-(Benzo[d]thiazol-2-yl)-5-((4-methylbenzyl)oxy)phenol]	1940 ± 78 nM	2.39 ± 0.14 Trolox equivalents	34.32 ± 0.09%	–
Oc1cc(OCc2cccc(C(F)(F)F)c2)ccc1-c1nc2ccccc2s1 [3f, 2-(Benzo[d]thiazol-2-yl)-5-((3-(trifluoromethyl)benzyl)oxy)phenol]	951 ± 62 nM	2.25 ± 0.07 Trolox equivalents	–	–
C[C@H](NCc1ccc(OCc2cccc(F)c2)cc1)C(N)=O [Safinamide]	–	1.12 ± 0.01 Trolox equivalents	–	inhibition at 10 µM (MAO-A): 24.9 ± 0.04%; MAO-B inhibitory mode (MAO-B [3]): reversible (reversible inhibition: MAO-B catalytic activity ≥ 80%); MAO-B catalytic activity, undialysis group (MAO-B [3]): 39.3%; MAO-B catalytic activity, dialysis group (MAO-B [3]): 93.0%
Oc1cc(OCc2cccc(Cl)c2)ccc1-c1nc2ccccc2s1 [3e, 2-(Benzo[d]thiazol-2-yl)-5-((3-chlorobenzyl)oxy)phenol]	1050 ± 83 nM	2.31 ± 0.07 Trolox equivalents	31.6 ± 0.28%	–
